Test results taken from ChEMBL document CHEMBL5365528, “Expanding the Role of Boron in New Drug Chemotypes: Properties, Chemistry, Pharmaceutical Potential of Hemiboronic Naphthoids” (J Med Chem, 2023).
In brackets after ≈: the same amount, converted by molar mass. Activity calls are given as the source filed them. The calls are words filed in the database; no cut-off is given here.

Assays:
[1] = Permeability of the compound across apical to basolateral membrane in human Caco-2 cells at 10 uM measured for 90 mins by LC-MS/MS analysis; format: ADME, cell-based
[2] = Permeability of the compound across basolateral to apical membrane in human Caco-2 cells at 10 uM measured for 90 mins by LC-MS/MS analysis; format: ADME, cell-based
[3] = Efflux ratio of permeability across basolateral to apical membrane over apical to basolateral membrane in human Caco-2 cells at 10 uM measured for 90 mins by LC-MS/MS analysis; format: ADME, cell-based
Staphylococcus aureus [4] = assay: Antibacterial activity against Staphylococcus aureus ATCC 43300 assessed as inhibition of bacterial growth at 100 uM incubated for 18 hrs; format: functional, organism-based
Staphylococcus aureus [5] = assay: Antibacterial activity against Staphylococcus aureus ATCC 43300 assessed as inhibition of bacterial growth incubated for 18 hrs; format: functional
[6] = Protein binding in human plasma at 1 uM measured after 6 hrs by LC-MS/MS analysis; format: ADME, cell-free; conditions: read-out: PPB (converted)
[7] = Clearance in human hepatocytes at 1 uM measured per million cells by LC-MS/MS analysis; format: ADME, cell-based, Hepatocyte; conditions: read-out: CLH
[8] = Half life in human hepatocytes at 1 uM by LC-MS/MS analysis; format: ADME, cell-based, Hepatocyte
Candida albicans [9] = assay: Antifungal activity against Candida albicans UAMH 3489 assessed as inhibition of fungal growth incubated for 24 hrs; format: functional
[10] = Lipophilicity, log P of the compound in octanol/water by RP-HPLC analysis; format: physicochemical
[11] = Stability of the compound in d6-DMSO with drop of D2O and measured for >1 month at room temperature by NMR spectroscopy; format: physicochemical; conditions: time > 1 months, read-out: Stability
[12] = Dissociation constant, pKa of the compound in aqueous phosphate buffer with 3 to 4% DMSO; format: physicochemical
[13] = Kinetic solubility of the compound in PBS buffer at pH 7.4 measured after 2 hrs by LC-MS/MS analysis; format: physicochemical; conditions: read-out: Kinetic_solubility
[14] = Dissociation constant, pKa of the compound in 1:1 CH3CN/aqueous phosphate buffer; format: physicochemical
[15] = Hepatic blood flow in human; format: ADME
[16] = Lipophilicity, log D of the compound in Octanol/PBS buffer at pH 7.4 measured after 1 hr by LC-MS/MS analysis; format: physicochemical
Candida albicans [17] = assay: Antifungal activity against Candida albicans UAMH 3489 assessed as inhibition of fungal growth at 100 uM incubated for 24 hrs; format: functional, organism-based
[18] = biological target: 3',5'-cyclic-AMP phosphodiesterase 4B (Homo sapiens) (UniProt Q07343); assay: Inhibition of N-terminal GST-tagged full length human PDE4B1 (1 to 736 residues) expressed in baculovirus-infected Sf9 cells using FAM-cAMP as substrate at 2 uM measured after 60 mins by fluorescence based analysis
Chain of 3',5'-cyclic-AMP phosphodiesterase 4B (Homo sapiens) (Q07343 whole entry, the tested form may be a part): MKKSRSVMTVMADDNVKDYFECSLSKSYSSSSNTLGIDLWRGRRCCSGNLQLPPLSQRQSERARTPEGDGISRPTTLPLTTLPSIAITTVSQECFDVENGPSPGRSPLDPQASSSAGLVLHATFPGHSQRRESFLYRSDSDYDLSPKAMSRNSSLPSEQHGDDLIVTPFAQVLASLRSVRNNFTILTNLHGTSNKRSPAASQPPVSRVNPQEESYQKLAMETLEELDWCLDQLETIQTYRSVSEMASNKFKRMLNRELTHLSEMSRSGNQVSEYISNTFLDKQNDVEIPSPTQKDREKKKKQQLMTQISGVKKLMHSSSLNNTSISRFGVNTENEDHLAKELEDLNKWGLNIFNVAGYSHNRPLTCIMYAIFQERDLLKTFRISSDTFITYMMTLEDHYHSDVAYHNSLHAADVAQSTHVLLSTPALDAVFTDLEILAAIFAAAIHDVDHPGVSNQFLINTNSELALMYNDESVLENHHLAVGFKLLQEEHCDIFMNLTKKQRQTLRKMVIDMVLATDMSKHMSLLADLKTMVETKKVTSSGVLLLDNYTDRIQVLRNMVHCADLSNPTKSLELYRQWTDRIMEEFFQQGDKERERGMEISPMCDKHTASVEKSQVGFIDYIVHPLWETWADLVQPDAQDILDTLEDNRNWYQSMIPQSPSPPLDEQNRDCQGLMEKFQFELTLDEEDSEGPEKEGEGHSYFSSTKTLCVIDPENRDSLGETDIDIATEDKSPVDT

[19] = biological target: T1, Poly [ADP-ribose] polymerase 2 (Homo sapiens, UniProt Q9UGN5); assay: Inhibition of N-terminal GST-tagged human PARP2 (2 to 583 residues) expressed in baculovirus-infected Sf9 cells using histone as substrate incubated for 60 mins in presence of activated DNA, NAD+, NAD+-biotin by luminescence based analysis
T1 sequence (Q9UGN5 whole entry, the tested form may be a part): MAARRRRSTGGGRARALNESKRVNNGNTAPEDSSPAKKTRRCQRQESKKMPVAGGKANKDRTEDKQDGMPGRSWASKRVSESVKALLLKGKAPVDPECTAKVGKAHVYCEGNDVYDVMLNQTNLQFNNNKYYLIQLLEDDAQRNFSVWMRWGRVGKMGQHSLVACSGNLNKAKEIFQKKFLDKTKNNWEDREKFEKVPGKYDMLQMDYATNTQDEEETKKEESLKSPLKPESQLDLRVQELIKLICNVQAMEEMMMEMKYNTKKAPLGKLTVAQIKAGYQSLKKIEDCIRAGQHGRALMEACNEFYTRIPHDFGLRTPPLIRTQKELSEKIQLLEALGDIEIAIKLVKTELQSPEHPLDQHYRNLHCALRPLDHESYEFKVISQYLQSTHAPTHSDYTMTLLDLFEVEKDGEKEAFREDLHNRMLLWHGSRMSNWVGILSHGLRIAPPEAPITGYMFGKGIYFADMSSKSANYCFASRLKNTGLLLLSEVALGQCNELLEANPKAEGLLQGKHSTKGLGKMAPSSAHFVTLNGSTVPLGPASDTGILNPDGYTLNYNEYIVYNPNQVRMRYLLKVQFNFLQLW

[20] = biological target: T1, Poly [ADP-ribose] polymerase 2; assay: Inhibition of N-terminal GST-tagged human PARP2 (2 to 583 residues) expressed in baculovirus-infected Sf9 cells using histone as substrate at 1000 nM incubated for 60 mins in presence of activated DNA, NAD+, NAD+-biotin by luminescence based analysis
[21] = biological target: T2, Poly [ADP-ribose] polymerase 1 (Homo sapiens, UniProt P09874); assay: Inhibition of N-terminal GST-tagged full length human PARP1 (2 to 1014 residues) expressed in baculovirus-infected Sf9 cells using histone as substrate incubated for 60 mins in presence of activated DNA, NAD+, NAD+-biotin by luminescence based analysis
T2 sequence (P09874 whole entry, the tested form may be a part): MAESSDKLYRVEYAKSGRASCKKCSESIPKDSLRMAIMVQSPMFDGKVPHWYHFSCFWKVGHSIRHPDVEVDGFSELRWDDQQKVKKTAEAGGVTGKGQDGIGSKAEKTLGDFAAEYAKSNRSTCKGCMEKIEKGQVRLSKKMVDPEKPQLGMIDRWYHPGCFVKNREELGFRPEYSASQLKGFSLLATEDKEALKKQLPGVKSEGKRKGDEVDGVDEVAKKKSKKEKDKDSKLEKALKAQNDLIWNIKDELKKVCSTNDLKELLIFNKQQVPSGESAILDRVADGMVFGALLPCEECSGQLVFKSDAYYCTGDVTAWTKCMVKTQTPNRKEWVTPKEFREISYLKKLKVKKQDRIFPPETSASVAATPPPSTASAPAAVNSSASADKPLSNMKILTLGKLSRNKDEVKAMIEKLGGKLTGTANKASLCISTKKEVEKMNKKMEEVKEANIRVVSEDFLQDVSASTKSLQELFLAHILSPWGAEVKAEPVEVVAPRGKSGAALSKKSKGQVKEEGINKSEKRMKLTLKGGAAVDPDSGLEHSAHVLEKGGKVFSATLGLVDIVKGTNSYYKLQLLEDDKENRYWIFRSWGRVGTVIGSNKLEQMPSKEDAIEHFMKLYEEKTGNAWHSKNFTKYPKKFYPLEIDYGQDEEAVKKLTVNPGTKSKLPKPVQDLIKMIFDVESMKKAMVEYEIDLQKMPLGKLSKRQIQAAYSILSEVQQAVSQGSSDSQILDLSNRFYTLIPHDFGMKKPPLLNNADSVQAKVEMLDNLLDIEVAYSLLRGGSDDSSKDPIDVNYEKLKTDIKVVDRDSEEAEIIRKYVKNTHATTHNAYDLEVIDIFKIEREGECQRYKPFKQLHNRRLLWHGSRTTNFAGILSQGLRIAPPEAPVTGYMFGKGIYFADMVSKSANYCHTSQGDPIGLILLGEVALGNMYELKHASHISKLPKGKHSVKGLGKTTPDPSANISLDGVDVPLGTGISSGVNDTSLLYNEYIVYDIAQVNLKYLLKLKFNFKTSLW

[22] = biological target: T2, Poly [ADP-ribose] polymerase 1; assay: Inhibition of N-terminal GST-tagged full length human PARP1 (2 to 1014 residues) expressed in baculovirus-infected Sf9 cells using histone as substrate at 1000 nM incubated for 60 mins in presence of activated DNA, NAD+, NAD+-biotin by luminescence based analysis
[23] = biological target: 3',5'-cyclic-AMP phosphodiesterase 4B (Homo sapiens) (UniProt Q07343); assay: Inhibition of N-terminal GST-tagged full length human PDE4B1 (1 to 736 residues) expressed in baculovirus-infected Sf9 cells using FAM-cAMP as substrate at 0.1 uM measured after 60 mins by fluorescence based analysis

C[C@H]1O[C@@H](O[C@H]2[C@@H](O)C[C@H](O[C@H]3[C@@H](O)C[C@H](O[C@H]4CC[C@@]5(C)[C@H](CC[C@@H]6[C@@H]5C[C@@H](O)[C@]5(C)[C@@H](C7=CC(=O)OC7)CC[C@]65O)C4)O[C@@H]3C)O[C@@H]2C)C[C@H](O)[C@@H]1O [DIGOXIN]
Papp A→B at 1.5 h, 10 µM [1]: 1 ×10⁻⁶ cm/s
Papp B→A at 1.5 h, 10 µM [2]: 13.1 ×10⁻⁶ cm/s
efflux ratio at 1.5 h, 10 µM [3]: 13.4

O=C(Nc1ccc2c(c1)B(O)NN=C2)c1ccc(F)cc1C(F)(F)F
Activity (Staphylococcus aureus [4]): inactive

CN[C@H](CC(C)C)C(=O)N[C@H]1C(=O)N[C@@H](CC(N)=O)C(=O)N[C@H]2C(=O)N[C@H]3C(=O)N[C@H](C(=O)N[C@H](C(=O)O)c4cc(O)cc(O)c4-c4cc3ccc4O)[C@H](O)c3ccc(c(Cl)c3)Oc3cc2cc(c3O[C@@H]2O[C@H](CO)[C@@H](O)[C@H](O)[C@H]2O[C@H]2C[C@](C)(N)[C@H](O)[C@H](C)O2)Oc2ccc(cc2Cl)[C@H]1O [VANCOMYCIN]
MIC (Staphylococcus aureus [5]): 4 µM (≈ 5.8 µg/mL)

OB1ON=C(c2ccccc2)c2ccccc21
fraction unbound at 6 h, 1 µM [6]: 0.102
hepatocyte CLint at 1 µM [7]: < 3.9 µL/min/1e6 cells
half-life at 1 µM [8]: > 6 h
MIC (Candida albicans [9]): 32 µM (≈ 7.14 µg/mL)
logP [10]: 2.6
Papp A→B at 1.5 h, 10 µM [1]: 34.5 ×10⁻⁶ cm/s
remaining at 730 h [11]: > 99%
Papp B→A at 1.5 h, 10 µM [2]: 4 ×10⁻⁶ cm/s
pKa [12]: ~5.5
solubility kinetic at 2 h [13]: ≥ 403 µM
MIC (Staphylococcus aureus [5]): 128 µM (≈ 28.5 µg/mL)
pKa [14]: 7
efflux ratio at 1.5 h, 10 µM [3]: 0.12
percent of hepatic blood flow [15]: < 36.1%
logD at 1 h [16]: 0.71

C[C@]12CC[C@H]3[C@@H](CCC4=CC(=O)CC[C@@]43C)[C@@H]1CC[C@@H]2O [TESTOSTERONE]
hepatocyte CLint at 1 µM [7]: 60.2 µL/min/1e6 cells
half-life at 1 µM [8]: 0.417 h
percent of hepatic blood flow [15]: 89.1%

OB1ON=Cc2cc(F)ccc21
MIC (Candida albicans [9]): 8 µM (≈ 1.32 µg/mL)
Activity (Staphylococcus aureus [4]): inactive

OB1OCc2cc(F)ccc21 [TAVABOROLE]
fraction unbound at 6 h, 1 µM [6]: 0.34
MIC (Candida albicans [9]): 1 µM (≈ 0.152 µg/mL)
pKa [12]: 7.4
solubility kinetic at 2 h [13]: > 658 µM
MIC (Staphylococcus aureus [5]): 128 µM (≈ 19.4 µg/mL)

OB1ON=Cc2cc(-c3ccc(F)cc3)ccc21
MIC (Candida albicans [9]): 4 µM (≈ 0.964 µg/mL)

OC(Cn1cncn1)(Cn1cncn1)c1ccc(F)cc1F [FLUCONAZOLE]
MIC (Candida albicans [9]): 4 µM (≈ 1.23 µg/mL)

N#Cc1ccc(Oc2ccc3c(c2)C=NOB3O)cc1
Activity (Candida albicans [17]): inactive
inhibition [18]: 23%

OB1NN=C(c2ccccc2)c2ccccc21
fraction unbound at 6 h, 1 µM [6]: 0.0141
hepatocyte CLint at 1 µM [7]: 12.8 µL/min/1e6 cells
half-life at 1 µM [8]: 1.81 h
logP [10]: 3.72
Papp A→B at 1.5 h, 10 µM [1]: 26.9 ×10⁻⁶ cm/s
remaining at 730 h [11]: > 99%
Papp B→A at 1.5 h, 10 µM [2]: 22.1 ×10⁻⁶ cm/s
pKa [12]: > 14
solubility kinetic at 2 h [13]: 189 µM (≈ 42.1 µg/mL)
pKa [14]: > 13
efflux ratio at 1.5 h, 10 µM [3]: 0.82
percent of hepatic blood flow [15]: 65.2%
logD at 1 h [16]: 3.44

OB1NN=Cc2ccccc21
Activity (Candida albicans [17]): inactive
fraction unbound at 6 h, 1 µM [6]: 0.082
hepatocyte CLint at 1 µM [7]: < 3.9 µL/min/1e6 cells
half-life at 1 µM [8]: > 6 h
logP [10]: 1.94
Papp A→B at 1.5 h, 10 µM [1]: 30.1 ×10⁻⁶ cm/s
remaining at 730 h [11]: > 99%
Papp B→A at 1.5 h, 10 µM [2]: 30.6 ×10⁻⁶ cm/s
pKa [12]: > 14
solubility kinetic at 2 h [13]: ≥ 439 µM
pKa [14]: > 14
efflux ratio at 1.5 h, 10 µM [3]: 1
percent of hepatic blood flow [15]: < 36.1%
logD at 1 h [16]: 2.03

O=C(c1cc(CC2=NOB(O)c3ccccc32)ccc1F)N1CCN(C(=O)C2CC2)CC1
IC50 [19]: > 1000 nM
inhibition [20]: 18%
IC50 [21]: > 1000 nM
inhibition [22]: inactive

OB1ON=Cc2cc(-c3ccsc3)ccc21
MIC (Candida albicans [9]): 2 µM (≈ 0.458 µg/mL)

OB1NN=C(c2ccccc2)c2cc(F)ccc21
MIC (Candida albicans [9]): > 128 µM
Activity (Staphylococcus aureus [4]): inactive

COc1ccc2c(c1)C(c1ccccc1)=NOB2O
MIC (Staphylococcus aureus [5]): 8 µM (≈ 2.02 µg/mL)

CC(C)NCC(O)COc1cccc2ccccc12 (stereo unspecified) [PROPRANOLOL]
Papp A→B at 1.5 h, 10 µM [1]: 3.4 ×10⁻⁶ cm/s

OB1ON=Cc2cc(-c3ccoc3)ccc21
MIC (Candida albicans [9]): 2 µM (≈ 0.426 µg/mL)

OB1ON=Cc2ccccc21
fraction unbound at 6 h, 1 µM [6]: 0.71
hepatocyte CLint at 1 µM [7]: 29.7 µL/min/1e6 cells
half-life at 1 µM [8]: 0.785 h
MIC (Candida albicans [9]): 16 µM (≈ 2.35 µg/mL)
logP [10]: 1.23
Papp A→B at 1.5 h, 10 µM [1]: 33 ×10⁻⁶ cm/s
remaining at 730 h [11]: > 99%
Papp B→A at 1.5 h, 10 µM [2]: 4.4 ×10⁻⁶ cm/s
pKa [12]: 5.5
solubility kinetic at 2 h [13]: ≥ 386 µM
pKa [14]: 7.1
efflux ratio at 1.5 h, 10 µM [3]: 0.13
percent of hepatic blood flow [15]: 81.2%
logD at 1 h [16]: ~0.65

N#Cc1ccc(Oc2ccc3c(c2)C=NNB3O)cc1
inhibition [18]: 5%

OB1OCc2ccccc21 [BENZOXABOROLE]
pKa [12]: 7.4
pKa [14]: 9.2

CCCSc1ccc2nc(NC(=O)OC)[nH]c2c1 [ALBENDAZOLE]
logD at 1 h [16]: 3.57

OB1NN=Cc2cc(F)ccc21
MIC (Candida albicans [9]): > 128 µM

CCCC(=O)Nc1ccc(OCC(O)CNC(C)C)c(C(C)=O)c1 (stereo unspecified) [ACEBUTOLOL]
fraction unbound at 6 h, 1 µM [6]: 0.707

N#Cc1ccc(Oc2ccc3c(c2)COB3O)cc1
inhibition [23]: 11%

CN(C)CCCN1c2ccccc2CCc2ccccc21 [IMIPRAMINE]
solubility kinetic at 2 h [13]: 457 µM (≈ 128 µg/mL)

COC(=O)C1=C(C)NC(C)=C(C(=O)OCCN(C)Cc2ccccc2)C1c1cccc([N+](=O)[O-])c1 (stereo unspecified) [NICARDIPINE]
solubility kinetic at 2 h [13]: 4.7 µM (≈ 2.25 µg/mL)

O=C(c1cc(CC2=NNB(O)c3ccccc32)ccc1F)N1CCN(C(=O)C2CC2)CC1
IC50 [19]: 120 nM
IC50 [21]: ~540 nM

OB1NN=Cc2cc(-c3ccc(C(F)(F)F)cc3)ccc21
Activity (Candida albicans [17]): inactive

N#Cc1ccc(Oc2ccc3c(c2)C(c2ccccc2)=NOB3O)cc1
inhibition [18]: 15%

OB1ON=Cc2cc(-c3ccc(C(F)(F)F)cc3)ccc21
MIC (Candida albicans [9]): 0.125 µM (≈ 0.0364 µg/mL)

COc1ccc(C2=NOB(O)c3ccccc32)cc1
MIC (Candida albicans [9]): 32 µM (≈ 8.1 µg/mL)
MIC (Staphylococcus aureus [5]): 64 µM (≈ 16.2 µg/mL)

OB1ON=C(c2ccccc2)c2cc(F)ccc21
MIC (Candida albicans [9]): 16 µM (≈ 3.86 µg/mL)
MIC (Staphylococcus aureus [5]): 64 µM (≈ 15.4 µg/mL)

COc1ccc(C2=NOB(O)c3ccccc32)cc1Br
MIC (Staphylococcus aureus [5]): 16 µM (≈ 5.31 µg/mL)

O=C(Nc1ccc2c(c1)B(O)NN=C2c1ccccc1)c1ccc(F)cc1C(F)(F)F
MIC (Staphylococcus aureus [5]): 64 µM (≈ 27.3 µg/mL)

OB1ON=Cc2cc(-c3ccccc3)ccc21
MIC (Candida albicans [9]): 8 µM (≈ 1.78 µg/mL)
